{"source": "ChEMBL document CHEMBL1147351", "about": "“Sesquiterpenoids and norsesquiterpenoids from the soft coral Lemnalia africana” (J Nat Prod, 1993)", "key": {"P388": {"test_system": "P388", "assay": "Cytotoxicity against mouse P388 cells at 1 ug/ml", "format": "functional, cell-based"}, "[1]": {"assay": "Cytotoxicity against african green monkey CV1 cells", "format": "cell-based", "details": "chlorocebus aethiops, cv-1"}}, "note": "The source made the active and inactive calls. No cut-off for these calls is given here.", "data": [{"smiles": "C[C@H]1CCC=C2CCC(C(C)(O)CO)=C[C@@]21C", "note": "(some centres not stated)", "values": [{"measurement": "Activity", "setting": "P388", "value": "Active"}, {"measurement": "Activity", "setting": "[1]", "value": 10, "unit": "µg/mL"}]}]}
